According to EPA's ToxRefDB 2:

Assays:
[1] = system: rat; conditions: Prenatal developmental toxicity study, other, Oral, Gavage/Intubation, dose end: 15 GD
[2] = system: rat; conditions: Multigenerational reproductive toxicity study, sprague dawley, Oral, Feed, dose end: 2 generation
[3] = system: rabbit; conditions: Prenatal developmental toxicity study; new zealand white; Oral; Gavage/Intubation; dose end: 19 GD; group: maternal; reproductive / reproductive performance / aborted / aborted + reproductive / reproductive performance / resorptions / resorptions + systemic…
[4] = system: rat; conditions: Subchronic oral toxicity in rodents, other, Feed, dose end: 13 week, group: systemic, systemic / organ weight / liver / relative to body weight + systemic / organ weight / thymus / absolute + systemic / organ weight / thymus…
[5] = system: mouse; conditions: Carcinogenicity; cd1; Oral; Feed; dose end: 87 week; group: systemic; systemic / clinical chemistry / alanine aminotransferase (alt/sgpt) / alanine aminotransferase (alt/sgpt) + systemic / clinical chemistry / …
[6] = system: dog; conditions: Chronic toxicity, beagle, Oral, Feed, dose end: 104 week, group: systemic
[7] = system: rat; conditions: Subchronic oral toxicity in rodents, long evans, Feed, dose end: 13 week, group: systemic, systemic / organ weight / liver / absolute + systemic / organ weight / liver / relative to body weight + systemic / pathology microscopic / …
[8] = system: rat; conditions: Subchronic oral toxicity in rodents, sprague dawley, Diet, dose end: 13 week, group: systemic
[9] = system: rabbit; conditions: Prenatal developmental toxicity study; new zealand white; Oral; Gavage/Intubation; dose end: 18 GD; group: maternal; systemic / in life observation / body weight / body weight gain + systemic / in life observation / clinical signs / anorexia + systemic / in…
[10] = group: developmental, developmental / developmental malformation / bone / bent + developmental / developmental malformation / bone / fused + developmental / …
[11] = group: maternal, systemic / in life observation / clinical signs / defecation + systemic / in life observation / clinical signs / defecation (diarrhea) + …
[12] = group: offspring, systemic / in life observation / body weight / offspring (pup) weight + systemic / in life observation / body weight / offspring (pup) …
[13] = group: parental, systemic / pathology microscopic / kidney / hyperplasia + systemic / pathology microscopic / kidney / mineralization + systemic / pathology …
[14] = group: reproductive, reproductive / offspring survival early / birth index / live birth index
[15] = systemic / clinical chemistry / alkaline phosphatase (alp/alk) / alkaline phosphatase (alp/alk) + systemic / in life observation / body …
[16] = systemic / in life observation / body weight / body weight gain + systemic / organ weight / liver / absolute + systemic / organ weight / …
[17] = systemic / in life observation / clinical signs / anemia - microcytic + systemic / urinalysis / volume / volume + systemic / clinical …

SMILES: CCOc1cc(Oc2ccc(C(F)(F)F)cc2Cl)ccc1[N+](=O)[O-] [Oxyfluorfen]
- LEL [1, 10]: 183 mg/kg/day
- LOAEL [1, 10]: 183 mg/kg/day
- NEL [1, 10]: 18 mg/kg/day
- NOAEL [1, 10]: 18 mg/kg/day
- LEL [1, 11]: 183 mg/kg/day
- LOAEL [1, 11]: 183 mg/kg/day
- NEL [1, 11]: 18 mg/kg/day
- NOAEL [1, 11]: 18 mg/kg/day
- LEL [2, 12]: 146 mg/kg/day
- LOAEL [2, 12]: 146 mg/kg/day
- NEL [2, 12]: 36.4 mg/kg/day
- NOAEL [2, 12]: 36.4 mg/kg/day
- LEL [2, 13]: 120 mg/kg/day
- LOAEL [2, 13]: 120 mg/kg/day
- NEL [2, 13]: 30.9 mg/kg/day
- NOAEL [2, 13]: 30.9 mg/kg/day
- LEL [2, 14]: 146 mg/kg/day
- LOAEL [2, 14]: 146 mg/kg/day
- NEL [2, 14]: 36.4 mg/kg/day
- NOAEL [2, 14]: 36.4 mg/kg/day
- LEL [3]: 90 mg/kg/day
- LOAEL [3]: 90 mg/kg/day
- NEL [3]: 30 mg/kg/day
- NOAEL [3]: 30 mg/kg/day
- LEL [4]: 71 mg/kg/day
- LOAEL [4]: 71 mg/kg/day
- NEL [4]: 14 mg/kg/day
- NOAEL [4]: 14 mg/kg/day
- LEL [5]: 33 mg/kg/day
- LOAEL [5]: 33 mg/kg/day
- NEL [5]: 3 mg/kg/day
- NOAEL [5]: 3 mg/kg/day
- LOAEL [6, 15]: 18.5 mg/kg/day
- NOAEL [6, 15]: 3.1 mg/kg/day
- LEL [6, 16]: 3 mg/kg/day
- NEL [6, 16]: < 3 mg/kg/day
- LEL [7]: 51.4 mg/kg/day
- LOAEL [7]: 51.4 mg/kg/day
- NEL [7]: < 51.4 mg/kg/day
- NOAEL [7]: < 51.4 mg/kg/day
- LEL ([8]; systemic / hematology / mean corpuscular (cell) volume (mcv) / mean corpuscular (cell) volume (mcv) + systemic / hematology / mean …): 144 mg/kg/day
- LOAEL ([8]; systemic / in life observation / clinical signs / anemia - microcytic + systemic / urinalysis / volume / volume): 585 mg/kg/day
- NEL [8, 17]: 46.7 mg/kg/day
- NOAEL [8, 17]: 144 mg/kg/day
- LEL [9]: 30 mg/kg/day
- LOAEL [9]: 30 mg/kg/day
- NEL [9]: 10 mg/kg/day
- NOAEL [9]: 10 mg/kg/day
